Reference: patent US20100130457A1, “Phenothiazine Derivatives for Treatment of Asthma” (Immune Control, Inc., priority 2008, published 2010)
Entries after “also recorded” stand apart in the source; their conditions may differ. Where two headings read alike, the source gives them in different places.

Columns and labels:
human small airway = test: Human precision-cut lung slices (PCLS), small airway contraction
Experimental: Human precision-cut lung slices (PCLS) permit evaluation of pharmacological responses of novel drug candidates applied directly to their target tissue.
Human precision-cut lung slices (PCLS, 250 μm thick) containing a small airway were contracted to carbachol, histamine and passively sensitization to induce airway closure±pre-incubation with ICI-735 (10 μM; 2 hours); FIG. 13. For example, human lung slices containing a small airway were incubated overnight with either negative control IgG (4 μg/mL) or positive control IgE (4 μg/mL). The slices were tested as follows: 1) IgG+anti-IgE; 2) IgE+anti-IgE; 3) IgE+Dexamethasone (1 μM)+anti-IgE; and 4) IgE+ICI-735 (10 μM) +anti-IgE. Dexamethasone and ICI-735 were pre-incubated 2 hours prior to anti-IgE; anti-IgE is used to crosslink antibodies and induce mast cell degranulation, which is believed to release histamine and cause airway contract. […]
Human lung tissue contains multiple cell types, including mast cells, that localize in the region of airway smooth muscle, and that increase in number in individuals with asthma. Cross-linking of Fcε;R1 receptors on surfaces of mast cells leads to release of granules that contain smooth muscle contractile agonists, including histamine and leukotrienes.
To test C-027 as a blocker of histamine-induced bronchoconstriction, lung slices were incubated for 2 hours with C-027, and small airway contraction was evaluated after addition of increasing concentrations of histamine.

MPR1-MDCK = MPR1-MDCK permeability, potential to cross the blood-brain barrier; format: in vitro ADME; settings: for % Recovery A-B / Papp A-B: A-B direction; for % Recovery B-A / Papp B-A: B-A direction; for Efflux: efflux ratio; for Brain Penetration Classification: from A-B Papp and efflux ratio
Text: (§1) A criterion for selecting an agent for proceeding to clinical trials is whether the compound crosses the blood-brain barrier. […] Fluphenazine (ICI-01175) is used as a control compound that has the potential to cross the blood-brain barrier. Table 1 summarizes the results of the test compounds for their potential to cross the blood-brain barrier.

RPMI 8226 = test: Inhibition of proliferation of RPMI 8226 cells; format: cell-based, human; settings: RPMI cells in vitro
Text: The next set of experiments was designed to assess compounds that have low levels of brain penetration for the ability of the test compounds to inhibit cellular proliferation. An exemplary in vitro assay is to screen for the ability of the test compounds to inhibit proliferation of the B-cell neoplastic cell line RPMI 8226 (a plasmacytoma derived from a multiple myeloma patient (Matsuoka, et al., 1967, Proc. Soc. Exp. Biol. Med. 125: 1246-1250). However other cell line can be used such as, U266 (established from an IgE-secreting myeloma patient (Nilsson, et al., 1970, Clin. Exp. Immunol., 7: 477-489) and ARH77 (an EBV transformed plasma cell leukemia (Burk, et al., 1978, Cancer Res. 38: 2508-2513).
FIG. 1 is a graph depicting the effects on the test compounds on RPMI cell viability.

[1] = MPR1-MDCK permeability, potential to cross the blood-brain barrier; format: in vitro ADME; settings: dog, MDCK
Text: as §1

C[N+](C)(C)CCOC(N)=O [Carbachol, reference compound]
bronchoconstriction (human small airway; 10^−8 to 10^−5 M, dose-dependent): up to 70%

C[C@@H]1C[C@H]2[C@@H]3CCC4=CC(=O)C=C[C@]4(C)[C@@]3(F)[C@@H](O)C[C@]2(C)[C@@]1(O)C(=O)CO [Dexamethasone, reference compound]
airway contraction to IgE/anti-IgE (passive sensitization, mast cell degranulation) (human small airway; ICI-735 10 μM, dexamethasone 1 μM, pre-incubated 2 hours): no effect

FC(F)(F)c1ccc2c(c1)N(CCCN1CCNCC1)c1ccccc1S2 [ICI-00685]
% Recovery A-B (MPR1-MDCK): 17%
Papp A-B (MPR1-MDCK): 6.6e-07 cm/s
% Recovery B-A (MPR1-MDCK): 15%
Papp B-A (MPR1-MDCK): 4.47e-06 cm/s
Efflux (MPR1-MDCK): 6.8
Brain Penetration Classification (MPR1-MDCK): Low (A-B Papp > 3.0 and Efflux Ratio > 10: Low)

CN(C)S(=O)(=O)c1ccc2c(c1)N(CCCN1CCN(CCN)CC1)c1ccccc1S2 [ICI-00715]
% Recovery A-B (MPR1-MDCK): 85%
Papp A-B (MPR1-MDCK): 8e-08 cm/s
% Recovery B-A (MPR1-MDCK): 77%
Papp B-A (MPR1-MDCK): 1.23e-05 cm/s
Efflux (MPR1-MDCK): 154
Brain Penetration Classification (MPR1-MDCK): Low (A-B Papp > 3.0 and Efflux Ratio > 10: Low)
ability to inhibit proliferation of RPMI cells (RPMI 8226): able to inhibit

CN(C)CCN1CCN(CCCN2c3ccccc3Sc3ccc(C(F)(F)F)cc32)CC1 [ICI-00738]
% Recovery A-B (MPR1-MDCK): 15%
Papp A-B (MPR1-MDCK): 1.06e-06 cm/s
% Recovery B-A (MPR1-MDCK): 40%
Papp B-A (MPR1-MDCK): 3.33e-06 cm/s
Efflux (MPR1-MDCK): 3.1
Brain Penetration Classification (MPR1-MDCK): Low (A-B Papp > 3.0 and Efflux Ratio > 10: Low)

CNCC(=O)NCCN1CCN(CCCN2c3ccccc3Sc3ccc(C(F)(F)F)cc32)CC1 [ICI-00758]
% Recovery A-B (MPR1-MDCK): 59%
Papp A-B (MPR1-MDCK): 2.1e-07 cm/s
% Recovery B-A (MPR1-MDCK): 41%
Papp B-A (MPR1-MDCK): 2.49e-05 cm/s
Efflux (MPR1-MDCK): 116
Brain Penetration Classification (MPR1-MDCK): Low (A-B Papp > 3.0 and Efflux Ratio > 10: Low)

NCCCN1CCN(CCCN2c3ccccc3Sc3ccc(C(F)(F)F)cc32)CC1 [ICI-00760]
% Recovery A-B (MPR1-MDCK): 46%
Papp A-B (MPR1-MDCK): <2.5e-07 cm/s
% Recovery B-A (MPR1-MDCK): 40%
Papp B-A (MPR1-MDCK): 1.88e-05 cm/s
Efflux (MPR1-MDCK): >75
Brain Penetration Classification (MPR1-MDCK): Low (A-B Papp > 3.0 and Efflux Ratio > 10: Low)

NCC(N)C(=O)NCCN1CCN(CCCN2c3ccccc3Sc3ccc(C(F)(F)F)cc32)CC1 (stereo not drawn) [ICI-761]
ability to inhibit proliferation of RPMI cells (RPMI 8226): able to inhibit

NCC(=O)NCCCN1CCN(CCCN2c3ccccc3Sc3ccc(C(F)(F)F)cc32)CC1 [ICI-00822]
% Recovery A-B (MPR1-MDCK): 61%
Papp A-B (MPR1-MDCK): 1.3e-07 cm/s
% Recovery B-A (MPR1-MDCK): 22%
Papp B-A (MPR1-MDCK): 1.57e-05 cm/s
Efflux (MPR1-MDCK): 119
Brain Penetration Classification (MPR1-MDCK): Low (A-B Papp > 3.0 and Efflux Ratio > 10: Low)

CNCC(=O)NCCCN1CCN(CCCN2c3ccccc3Sc3ccc(C(F)(F)F)cc32)CC1 [ICI-00823]
% Recovery A-B (MPR1-MDCK): 57%
Papp A-B (MPR1-MDCK): <2.4e-07 cm/s
% Recovery B-A (MPR1-MDCK): 46%
Papp B-A (MPR1-MDCK): 1.94e-05 cm/s
Efflux (MPR1-MDCK): >80
Brain Penetration Classification (MPR1-MDCK): Low (A-B Papp > 3.0 and Efflux Ratio > 10: Low)

FC(F)(F)c1ccc2c(c1)N(CCCC1CCNCC1)c1ccccc1S2 [ICI-00824]
% Recovery A-B (MPR1-MDCK): 11%
Papp A-B (MPR1-MDCK): 1.77e-06 cm/s
% Recovery B-A (MPR1-MDCK): 21%
Papp B-A (MPR1-MDCK): 1.38e-05 cm/s
Efflux (MPR1-MDCK): 7.8
Brain Penetration Classification (MPR1-MDCK): Low (A-B Papp > 3.0 and Efflux Ratio > 10: Low)

NCCN1CCC(CCCN2c3ccccc3Sc3ccc(C(F)(F)F)cc32)CC1 [ICI-00846]
% Recovery A-B (MPR1-MDCK): 3%
Papp A-B (MPR1-MDCK): <3.6e-07 cm/s
% Recovery B-A (MPR1-MDCK): 1%
Papp B-A (MPR1-MDCK): <4.9e-07 cm/s
Brain Penetration Classification (MPR1-MDCK): Low (A-B Papp > 3.0 and Efflux Ratio > 10: Low)

NCCCN1CCC(CCCN2c3ccccc3Sc3ccc(C(F)(F)F)cc32)CC1 [ICI-00847]
% Recovery A-B (MPR1-MDCK): 9%
Papp A-B (MPR1-MDCK): 5.6e-07 cm/s
% Recovery B-A (MPR1-MDCK): 31%
Papp B-A (MPR1-MDCK): 9.56e-06 cm/s
Efflux (MPR1-MDCK): 17
Brain Penetration Classification (MPR1-MDCK): Low (A-B Papp > 3.0 and Efflux Ratio > 10: Low)
ability to inhibit proliferation of RPMI cells (RPMI 8226; listed as ICI-847): able to inhibit; also recorded: active

NCC(=O)NCCN1CCC(CCCN2c3ccccc3Sc3ccc(C(F)(F)F)cc32)CC1 [ICI-00848]
% Recovery A-B (MPR1-MDCK): 22%
Papp A-B (MPR1-MDCK): 2.4e-07 cm/s
% Recovery B-A (MPR1-MDCK): 21%
Papp B-A (MPR1-MDCK): 1.55e-05 cm/s
Efflux (MPR1-MDCK): 64
Brain Penetration Classification (MPR1-MDCK): Low (A-B Papp > 3.0 and Efflux Ratio > 10: Low)
ability to inhibit proliferation of RPMI cells (RPMI 8226): able to inhibit

CNCC(=O)NCCN1CCC(CCCN2c3ccccc3Sc3ccc(C(F)(F)F)cc32)CC1 [ICI-00849]
% Recovery A-B (MPR1-MDCK): 11%
Papp A-B (MPR1-MDCK): <1e-06 cm/s
% Recovery B-A (MPR1-MDCK): 26%
Papp B-A (MPR1-MDCK): 5.1e-06 cm/s
Efflux (MPR1-MDCK): >5.1
Brain Penetration Classification (MPR1-MDCK): Low (A-B Papp > 3.0 and Efflux Ratio > 10: Low)
ability to inhibit proliferation of RPMI cells (RPMI 8226): able to inhibit

CC(=O)NCCN1CCC(CCCN2c3ccccc3Sc3ccc(C(F)(F)F)cc32)CC1 [ICI-00850]
% Recovery A-B (MPR1-MDCK): 11%
Papp A-B (MPR1-MDCK): 9.4e-07 cm/s
% Recovery B-A (MPR1-MDCK): 9%
Papp B-A (MPR1-MDCK): 4.94e-06 cm/s
Efflux (MPR1-MDCK): 5.3
Brain Penetration Classification (MPR1-MDCK): Low (A-B Papp > 3.0 and Efflux Ratio > 10: Low)

FC(F)(F)c1ccc2c(c1)N(CCCCN1CCNCC1)c1ccccc1S2 [ICI-00890]
% Recovery A-B (MPR1-MDCK): 15%
Papp A-B (MPR1-MDCK): 7.5e-07 cm/s
% Recovery B-A (MPR1-MDCK): 29%
Papp B-A (MPR1-MDCK): 8.6e-06 cm/s
Efflux (MPR1-MDCK): 11
Brain Penetration Classification (MPR1-MDCK): Low (A-B Papp > 3.0 and Efflux Ratio > 10: Low)

N#Cc1ccc2c(c1)N(CCCN1CCN(CCN)CC1)c1ccccc1S2 [ICI-00894]
% Recovery A-B (MPR1-MDCK): 56%
Papp A-B (MPR1-MDCK): 2.2e-07 cm/s
% Recovery B-A (MPR1-MDCK): 56%
Papp B-A (MPR1-MDCK): 3e-05 cm/s
Efflux (MPR1-MDCK): 136
Brain Penetration Classification (MPR1-MDCK): Low (A-B Papp > 3.0 and Efflux Ratio > 10: Low)

OCCN1CCN(CCCN2c3ccccc3Sc3ccc(C(F)(F)F)cc32)CC1 [ICI-01175, Fluphenazine, reference compound]
Papp A→B ([1]; A-B direction): 8.7 ×10⁻⁶ cm/s
recovery ([1]; A-B direction, read-out: % Recovery A-B): 24%
Papp B→A ([1]; B-A direction): 9.63 ×10⁻⁶ cm/s
recovery ([1]; B-A direction, read-out: % Recovery B-A): 43%
efflux ratio ([1]; efflux ratio): 1.1
Brain Penetration Classification (MPR1-MDCK): High (A-B Papp > 3.0 and Efflux Ratio < 3.0: High)

CNCC(=O)NCCCN1CCC(CCCN2c3ccccc3Sc3ccc(C(F)(F)F)cc32)CC1 [ICI-01259]
% Recovery A-B (MPR1-MDCK): 29%
Papp A-B (MPR1-MDCK): <2.9e-07 cm/s
% Recovery B-A (MPR1-MDCK): 39%
Papp B-A (MPR1-MDCK): 1.25e-05 cm/s
Efflux (MPR1-MDCK): >43
Brain Penetration Classification (MPR1-MDCK): Low (A-B Papp > 3.0 and Efflux Ratio > 10: Low)
ability to inhibit proliferation of RPMI cells (RPMI 8226): able to inhibit

NCC(=O)NCCCN1CCC(CCCN2c3ccccc3Sc3ccc(C(F)(F)F)cc32)CC1 [ICI-01260]
% Recovery A-B (MPR1-MDCK): 55%
Papp A-B (MPR1-MDCK): 3.2e-07 cm/s
% Recovery B-A (MPR1-MDCK): 47%
Papp B-A (MPR1-MDCK): 2.64e-05 cm/s
Efflux (MPR1-MDCK): 82
Brain Penetration Classification (MPR1-MDCK): Low (A-B Papp > 3.0 and Efflux Ratio > 10: Low)
ability to inhibit proliferation of RPMI cells (RPMI 8226; listed as ICI-1260): able to inhibit; also recorded: active

CN(C)CCCN1CCC(CCCN2c3ccccc3Sc3ccc(C(F)(F)F)cc32)CC1 [ICI-01505]
% Recovery A-B (MPR1-MDCK): 3%
Papp A-B (MPR1-MDCK): <3.6e-07 cm/s
% Recovery B-A (MPR1-MDCK): 26%
Papp B-A (MPR1-MDCK): 6.4e-07 cm/s
Efflux (MPR1-MDCK): >1.8
Brain Penetration Classification (MPR1-MDCK): Low (A-B Papp > 3.0 and Efflux Ratio > 10: Low)

CC(C)NCC(O)c1ccc(O)c(O)c1 (stereo not drawn) [isoproterenol, reference compound]
relaxation of maximally contracted airway smooth muscle (human small airway; in the presence of 30 μM CCh, isoproterenol 10 μM): comparable degree of relaxation
